# Experiments:
# quail chymotrypsin = assay: ATEE assay: inhibition of quail intestinal chymotrypsin activity; format: biochemical, Japanese quail; conditions: compound 1 x 10⁻⁵M; ATEE substrate; percentage inhibition of control activity ± standard deviation (n = 3); 5 min, 10 µM
# Experimental: The substrate was prepared by dissolving ATEE (10 mg) in Tris-HCl buffer of pH 7.5 containing 30% (v/v) of methanol (25 ml). The quail intestine protease activity was partially purified as described above prior to testing for chymotrypsin activity. The reaction was carried out in a quartz cuvette (1 x 0.25 x 1 cm³) containing substrate (1 ml) and 100 mM Tris-HCl buffer (200 µl). The reaction was started by the addition of the partially purified intestine protease (200 µl) and followed bv the decrease in absorbance at 237 nm over a 5 minute period. All determinations were carried out in triplicate against a reagent blank.
# bullfinch trypsin = assay: BAEE assay: inhibition of bullfinch intestinal trypsin activity; format: biochemical; conditions: compound 1 x 10⁻⁵M; BAEE substrate; percentage inhibition of control activity ± standard deviation (n = 3); 7 min, 10 µM
# Experimental: (§1) Dried avian intestine powder (500 mg) was extracted for 30 minutes in 1 mM HC₁ (5 ml). The extract was centrifuged at 22,000 x g for 30 minutes at 4°C. The resultant supernatant was applied to a column of Sephadex G-50, medium grade (360 mm x 15 mm) and eluted with 0.5 mM HCl at 0.7 ml/min. Fractions (3.5 ml) were collected and tested for the presence of protein by determining their absorbance at 280 nm. The proteinaceous fractions were bulked and concentrated by passing them through an ultrafiltration unit (YM 30 filter). The concentrate was collected and kept at 4°C throughout its use.
# The substrate was prepared bv dissolving BAEE (10 mg) in a mixture of 50 mM Tris-HCl buffer of pH 7.5 (24 ml) and 5% (w/v) calcium chloride solution (1 ml). The bullfinch intestine protease activity was partially purified as described above prior to testing for trypsin activity. The reaction was carried out in a quartz cuvette (1 x 0.25 x 1 cm³) containing substrate (1 ml) and 50 mM Tris-HCl buffer (200 µl). The reaction was started by the addition of the partially purified intestine protease 1200 µl) and followed by the decrease in absorbance at 253 nm over a 7 minute period. All determinations were carried out in triplicate against a reagent blank.
# (§2) In both the chymotrypsin and the trypsin assays a control was however carried out using the 200 µl of buffer containing no added compound.
# pigeon trypsin = assay: TAME assay: inhibition of pigeon intestinal trypsin activity; format: biochemical; conditions: for Inhibition of Activity: compound 60 µg/ml, TAME substrate, percentage inhibition of control activity ± standard deviation (n = 3), 5 min
# Experimental: as §1
# The substrate was prepared by dissolving TAME (19 mg) in a mixture of 100 mM Tris-HCl buffer of pH 7.5 (50 ml) and 5% (w/v) calcium chloride solution (2 ml). The pigeon intestine protease was partially purified as described above prior to testing for trypsin activity. The reaction was carried out in a quartz cuvette (1 x 0.25 x 1 cm³) containing substrate (3 ml) and 100 mM Tris-HCl buffer pH 7.5 (100 µl). The reaction was started by the addition of the partially purified intestine protease (100 µl) and followed by the decrease in absorbance at 247 nm over a 5 minute period.
# as §2
# feral pigeons [1] = assay: Three day no-choice feeding test with feral pigeons; format: in vivo; conditions: 0.5% w/w compound/pellet, ± standard deviation; for Mean weight difference: after the test compared with before; for Mean consumption: treated food
# Experimental: (§3) Feral pigeons were transferred from a communal outdoor aviary to individual cages and maintained on a 10 hour light - 14 hour dark cycle. Birds were gradually weaned away from their normal diet of maize, wheat and maple peas to a standard laboratory diet of turkey starter pellets.
# (§4) The pellets were oven dried and then left to absorb atmospheric moisture. The control food was sprayed with the same volume of acetone/water mixture.
# (§5) A group of 35 feral pigeons was caged individually for the trials which used eight compounds of formula (I) together with sucrose octaacetate and dimethyl anthranilate, both of which are substances which are known to be avian repellents. Each bird was subjected to treatment with each compound in a random order subject to the limitation of a latin square design. Each treatment was presented to the birds in no-choice and two-choice conditions. The no-choice phase lasted 3 days, during which a bird was presented with a single bowl containing 120 g of treated food. Each bird was weighed before and after the no-choice phase, as was the amount of food remaining. There immediately followed a two-choice phase in which the birds could choose between food treated with a given chemical and a bowl containing otherwise identical pellets without the chemical (the control treatment utilising two bowls of acetone/water treated pellets, one of which was arbitrarily selected as the control). The two-choice phase lasted four days during which food consumption was monitored daily. The position of the food bowls was alternated each day in order to overcome the confusing of food preference with position preference and ample water and grit were supplied throughout the trial.
# feral pigeons [2] = assay: Four day two-choice feeding test with feral pigeons; format: in vivo; conditions: for Mean consumption of treated food: four day two-choice, 0.5% w/w compound/pellet; for deterrent effect on food consumption: two-choice test, proportions of treated and untreated food consumed, statement in words
# Experimental: as §3, §4, §5
# The data obtained in the four day two-choice test is presented in Table 5 for mean consumption of treated food. […]
# Japanese quail [3] = assay: No choice feeding trial with Japanese quail; format: in vivo; conditions: 5,000 ppm additive in turkey starter crumbs, 14 days, ± standard deviation
# Text: (§6) (A) Six week old female japanese quail were preconditoned by weighing them seven days before the start of the feeding trial. Five quail were placed in each of four cages and each cage was provided with a different diet, these being (a) a control diet of standard turkey starter crumbs (TSC), (b) TSC treated with 5,000 ppm cinnamamide, (c) TSC treated with 5,000 ppm 4-hydroxy-3,5-dimethoxycinnamic acid, and (d) TSC treated with 2,500 ppm cinnamamide + 2,500 ppm 4-hydroxy-3,5-dimethoxycinnamic acid. The treated TSC was prepared in each case by dissolving/-suspending the compound or compounds in diethyl ether (1500 ml) and mixing this with TSC (2000 g) at 0.25% or 0.5% w/w concentration compound/TSC in an industrial food mixer for 1 hour to evaporate off the diethyl ether and produce a homogeneous mixture. The control was prepared by mixing TSC (2000 g) with diethyl ether for 1 hour in an industrial food mixer. The amount of each diet consumed and the weight gain of the birds was recorded on a daily basis for a period of 14 days. The trial was carried out in duplicate.
# The results of the trial are presented in Table 2, together with the standard deviation. It will be seen that diets (b) and (d) produced a decreased increase in body weight as compared with the control diet (a). It should be appreciated that increased consumption, which apparently occurs with diets (c) and (d), can be the result of a compensation against the occurrence of the enzyme inhibitory effect and a consequent reduction in value of the food consumed.
# Japanese quail [4] = assay: Feeding trial with choice, Japanese quail; format: in vivo; conditions: for Increase in body weight: value is for the birds offered both diets; for Average food eaten: treated diet eaten
# Text: as §6
# (B) In a variation of the treatment decribed in (A) four quail were placed in each of four cages and each cage was offered a choice between a control diet of TSC and TSC treated with one of (a) 5,000 ppm cinnamamide, (b) 2,500 ppm cinnamamide, (c) 1,000 ppm cinnamamide, and (d) 2,500 ppm cinnamamide + 2,500 ppm 4-hydroxy-3,5-dimethoxycinnamic acid. The various diets were prepared as described under (A).
# The results of the trial are presented in Table 3, together with the standard deviation. It will be seen that in each case the birds consume less treated than untreated food and that although the weight gain was the least for the birds offered the control + 5,000 ppm cinnamamide diets, it was the 2,500 ppm cinnamamide + 2,500 ppm 4-hydroxy-3,5-dimethoxycinnamic acid diet which was least consumed.
# [5] = choice between control diet and diet with 1,000 ppm additive
# [6] = choice between control diet and diet with 2,500 ppm additive
# [7] = choice between control diet and diet with 5,000 ppm additive
smiles,measurement,setting,value
"COc1cc(C=CC(=O)O)cc(OC)c1OC [3,4,5-Trimethoxycinnamic acid]",Inhibition of Activity Chymotrypsin,quail chymotrypsin,88 ± 2 percentage
same,Inhibition of Activity Trypsin,bullfinch trypsin,36 ± 1 percentage
same,Inhibition of Activity,pigeon trypsin,0 percentage
same,Mean weight difference,feral pigeons [1],-1.5 ± 0.9 grams
same,Mean consumption,feral pigeons [1],53.0 ± 2.1 grams
same,Mean consumption of treated food,feral pigeons [2],19.8 ± 2.7 grams
same,deterrent effect on food consumption,feral pigeons [2],most marked
"COc1ccc(C=CC(=O)O)cc1OC [3,4-Dimethoxycinnamic acid]",Inhibition of Activity Chymotrypsin,quail chymotrypsin,83 ± 3 percentage
same,Inhibition of Activity,pigeon trypsin,16 ± 1 percentage
same,Mean weight difference,feral pigeons [1],-1.1 ± 0.9 grams
same,Mean consumption,feral pigeons [1],55.3 ± 2.3 grams
same,Mean consumption of treated food,feral pigeons [2],27.1 ± 2.8 grams
"COc1cc(C=CC(=O)O)cc(OC)c1 [3,5-Dimethoxycinnamic acid]",Inhibition of Activity Chymotrypsin,quail chymotrypsin,63 ± 1 percentage
same,Inhibition of Activity,pigeon trypsin,14 ± 1 percentage
same,Mean weight difference,feral pigeons [1],-12.9 ± 1.2 grams
same,Mean consumption,feral pigeons [1],33.1 ± 1.5 grams
same,Mean consumption of treated food,feral pigeons [2],12.1 ± 1.7 grams
same,deterrent effect on food consumption,feral pigeons [2],most marked
"O=C(C=Cc1ccc(O)c(O)c1)OC1CC(O)(C(=O)O)CC(O)C1O (stereo not shown) [3-(3',4'-Dihydroxycinnamoyl)-quinic acid]",Inhibition of Activity,pigeon trypsin,3 ± 1 percentage
O=C(O)C=Cc1cccc(O)c1 [3-Hydroxycinnamic acid],Inhibition of Activity Chymotrypsin,quail chymotrypsin,43 ± 2 percentage
COc1cccc(C=CC(=O)O)c1 [3-Methoxycinnamic acid],Inhibition of Activity Chymotrypsin,quail chymotrypsin,56 ± 4 percentage
"COc1cc(C(=O)O)cc(OC)c1O [4-Hydroxy-3,5-dimethoxy-benzoic acid, reference compound]",Inhibition of Activity Chymotrypsin,quail chymotrypsin,2 ± 2 percentage
"COc1cc(C=CC(=O)O)cc(OC)c1O [4-Hydroxy-3,5-dimethoxy-cinnamic acid, 4-Hydroxy-3,5-dimethoxycinnamic acid]",Inhibition of Activity Chymotrypsin,quail chymotrypsin,94 ± 2 percentage
same,Inhibition of Activity Trypsin,bullfinch trypsin,22 ± 2 percentage
same,Inhibition of Activity,pigeon trypsin,16 ± 4 percentage
same,Average food eaten,Japanese quail [3],21 ± 0.3 g/bird/day
same,Increase in body weight,Japanese quail [3],0.89 ± 0.10 g/bird/day
same,Mean weight difference,feral pigeons [1],2.3 ± 0.9 grams
same,Mean consumption,feral pigeons [1],60.2 ± 3.3 grams
same,Mean consumption of treated food,feral pigeons [2],29.2 ± 2.8 grams
COc1cc(C=CC(=O)O)ccc1O [4-Hydroxy-3-methoxycinnamic acid],Inhibition of Activity,pigeon trypsin,16 ± 4 percentage
same,Mean weight difference,feral pigeons [1],-0.2 ± 1.1 grams
same,Mean consumption,feral pigeons [1],54.5 ± 2.9 grams
same,Mean consumption of treated food,feral pigeons [2],22.7 ± 2.4 grams
"O=C(O)C=Cc1ccc(O)cc1 [4-Hydroxycinnamic acid, 4-hydroxycinnamic acid]",Inhibition of Activity Chymotrypsin,quail chymotrypsin,12 ± 1 percentage
"O=C(O)c1ccccc1 [Benzoic acid, reference compound]",Inhibition of Activity Chymotrypsin,quail chymotrypsin,14 ± 1 percentage
O=CC=Cc1ccccc1 [Cinnamaldehyde],Inhibition of Activity Chymotrypsin,quail chymotrypsin,57 ± 4 percentage
"NC(=O)C=Cc1ccccc1 [Cinnamamide, cinnamamide]",Inhibition of Activity Chymotrypsin,quail chymotrypsin,5 ± 1 percentage
same,Inhibition of Activity Trypsin,bullfinch trypsin,64 ± 2 percentage
same,Inhibition of Activity,pigeon trypsin,0 percentage
same,activity against pigeon intestinal trypsin,pigeon trypsin; statement in words,no activity was observed
same,Average food eaten,Japanese quail [3],17 ± 0.3 g/bird/day
same,Increase in body weight,Japanese quail [3],0.14 ± 0.04 g/bird/day
same,Increase in body weight,Japanese quail [4]; [5],1.29 ± 0.10 g/bird/day
same,Increase in body weight,Japanese quail [4]; [6],1.34 ± 0.20 g/bird/day
same,Increase in body weight,Japanese quail [4]; [7],0.66 ± 0.10 g/bird/day
same,deterrent effect on food consumption,"Japanese quail [4]; quail, statement in words",a deterrent effect on food consumpton was noted
same,Average food eaten,Japanese quail [4]; [5],6 ± 0.2 g/bird/day
same,Average food eaten,Japanese quail [4]; [6],5 ± 0.4 g/bird/day
same,Average food eaten,Japanese quail [4]; [7],4 ± 0.2 g/bird/day
same,Mean weight difference,feral pigeons [1],-16.2 ± 1.3 grams
same,Mean consumption,feral pigeons [1],22.3 ± 2.7 grams
same,Mean consumption of treated food,feral pigeons [2],6.0 ± 1.5 grams
same,deterrent effect on food consumption,feral pigeons [2],most marked
N#CC=Cc1ccccc1 [Cinnamonitrile],Inhibition of Activity Chymotrypsin,quail chymotrypsin,23 ± 1 percentage
OCC=Cc1ccccc1 [Cinnamyl alcohol],Inhibition of Activity Chymotrypsin,quail chymotrypsin,20 ± 6 percentage
"CNc1ccccc1C(=O)OC [Dimethylanthranilate, Dimethyl anthranilate, reference compound]",Inhibition of Activity,pigeon trypsin,9 ± 2 percentage
same,Mean weight difference,feral pigeons [1],-4.8 ± 2.0 grams
same,Mean consumption,feral pigeons [1],45.9 ± 2.9 grams
same,Mean consumption of treated food,feral pigeons [2],18.2 ± 2.4 grams
O=C(O)CCc1ccccc1 [Hydrocinnamic acid],Inhibition of Activity Chymotrypsin,quail chymotrypsin,19 ± 3 percentage
"O=C(O)Cc1ccccc1 [Phenylacetic acid, reference compound]",Inhibition of Activity Chymotrypsin,quail chymotrypsin,13 ± 2 percentage
"CC(=O)OC[C@H]1O[C@@](COC(C)=O)(O[C@H]2O[C@H](COC(C)=O)[C@@H](OC(C)=O)[C@H](OC(C)=O)[C@H]2OC(C)=O)[C@@H](OC(C)=O)[C@@H]1OC(C)=O [Sucrose octaacetate, reference compound]",Mean weight difference,feral pigeons [1],2.3 ± 0.9 grams
same,Mean consumption,feral pigeons [1],54.0 ± 2.6 grams
same,Mean consumption of treated food,feral pigeons [2],28.6 ± 2.4 grams
CC(C=O)=Cc1ccccc1 [α-Methylcinnamaldehyde],Inhibition of Activity Chymotrypsin,quail chymotrypsin,17 ± 5 percentage
CC(=Cc1ccccc1)C(=O)O [α-Methylcinnamic acid],Inhibition of Activity Chymotrypsin,quail chymotrypsin,36 ± 3 percentage

# From EP0321208A1, “Improvements in or relating to avian control” (priority 1987, dated 1989)
